Measurements reported in ChEMBL document CHEMBL3885881, “DrugMatrix”.

Species on record: Rattus norvegicus
Assay: DrugMatrix - Regimen: Daily Repeat
Assay type: toxicity, organism-based, Sprague-Dawley
Design: regimen Daily Repeat, gender Male, age 6-8 weeks
Settings: in vivo, po, route oral GAVAGE, vehicle 100 % WATER; for ABSOLUTE BASOPHIL / ABSOLUTE EOSINOPHIL / ABSOLUTE LYMPHOCYTE / ABSOLUTE MONOCYTE / ABSOLUTE SEGMENTED NEUTROPHIL / BASOPHIL / EOSINOPHIL / ERYTHROCYTE COUNT / HEMATOCRIT / HEMOGLOBIN / LEUKOCYTE COUNT / LYMPHOCYTE / MEAN CORPUSCULAR HEMOGLOBIN / MEAN CORPUSCULAR HEMOGLOBIN CONCENTRATION / MEAN CORPUSCULAR VOLUME / MONOCYTE / NEUTROPHIL / NUCLEATED RED BLOOD CELLS / PLATELET COUNT: tissue Blood; for ALANINE AMINOTRANSFERASE / ALBUMIN / ALKALINE PHOSPHATASE / ASPARTATE AMINOTRANSFERASE / BLOOD UREA NITROGEN / CARBON DIOXIDE / CHLORIDE / CHOLESTEROL / CREATINE PHOSPHOKINASE / CREATININE / GLUCOSE / LACTATE DEHYDROGENASE / LIPASE / PHOSPHORUS / POTASSIUM / SODIUM / TOTAL BILIRUBIN / TOTAL PROTEIN / URIC ACID: tissue Plasma
[1] = 10 mg/kg, 120 h, dose level Low, time 5 day
[2] = 900 mg/kg, 72 h, dose level High, time 3 day
[3] = 900 mg/kg, 120 h, dose level High, time 5 day

Compound: CC(C)(C)NC[C@H](O)COc1nsnc1N1CCOCC1 [TIMOLOL]
- ABSOLUTE BASOPHIL [1]: 0 CELLS/uL
- ABSOLUTE EOSINOPHIL [1]: 115.33 CELLS/uL
- ABSOLUTE LYMPHOCYTE [1]: 10711.67 CELLS/uL
- ABSOLUTE MONOCYTE [1]: 97.67 CELLS/uL
- ABSOLUTE SEGMENTED NEUTROPHIL [1]: 1075.33 CELLS/uL
- BASOPHIL [1]: 0%
- EOSINOPHIL [1]: 0.67%
- ERYTHROCYTE COUNT [1]: 5.23 x10E6/uL
- HEMATOCRIT [1]: 33.1%
- HEMOGLOBIN [1]: 12.83 G/DL
- LEUKOCYTE COUNT [1]: 12 x10E3/uL
- LYMPHOCYTE [1]: 90%
- MEAN CORPUSCULAR HEMOGLOBIN [1]: 24.53 pg
- MEAN CORPUSCULAR HEMOGLOBIN CONCENTRATION [1]: 38.77 G/DL
- MEAN CORPUSCULAR VOLUME [1]: 63.27 fL
- MONOCYTE [1]: 0.67%
- NEUTROPHIL [1]: 8.67%
- NUCLEATED RED BLOOD CELLS [1]: 0 /100WBC
- PLATELET COUNT [1]: 1050 x10E3/uL
- ALANINE AMINOTRANSFERASE [1]: 51 u/L
- ALBUMIN [1]: 4.03 G/DL
- ALKALINE PHOSPHATASE [1]: 411.33 u/L
- ASPARTATE AMINOTRANSFERASE [1]: 79.33 u/L
- BLOOD UREA NITROGEN [1]: 15 mg/dL
- CARBON DIOXIDE [1]: 29 mmol/L
- CHLORIDE [1]: 101.33 MEQ/L
- CHOLESTEROL [1]: 71 mg/dL
- CREATINE PHOSPHOKINASE [1]: 333 u/L
- CREATININE [1]: 0.16 mg/dL
- GLUCOSE [1]: 180.33 mg/dL
- LACTATE DEHYDROGENASE [1]: 129.33 u/L
- LIPASE [1]: 9 u/L
- PHOSPHORUS [1]: 11.93 mg/dL
- POTASSIUM [1]: 5.38 MEQ/L
- SODIUM [1]: 144.33 MEQ/L
- TOTAL BILIRUBIN [1]: 0.13 mg/dL
- TOTAL PROTEIN [1]: 6.1 G/DL
- URIC ACID [1]: 0.73 mg/dL
- ABSOLUTE BASOPHIL [2]: 0 CELLS/uL
- ABSOLUTE EOSINOPHIL [2]: 0 CELLS/uL
- ABSOLUTE LYMPHOCYTE [2]: 11176.67 CELLS/uL
- ABSOLUTE MONOCYTE [2]: 84.33 CELLS/uL
- ABSOLUTE SEGMENTED NEUTROPHIL [2]: 872.33 CELLS/uL
- BASOPHIL [2]: 0%
- EOSINOPHIL [2]: 0%
- ERYTHROCYTE COUNT [2]: 5.11 x10E6/uL
- HEMATOCRIT [2]: 32.53%
- HEMOGLOBIN [2]: 12.93 G/DL
- LEUKOCYTE COUNT [2]: 12.13 x10E3/uL
- LYMPHOCYTE [2]: 92%
- MEAN CORPUSCULAR HEMOGLOBIN [2]: 25.27 pg
- MEAN CORPUSCULAR HEMOGLOBIN CONCENTRATION [2]: 39.77 G/DL
- MEAN CORPUSCULAR VOLUME [2]: 63.67 fL
- MONOCYTE [2]: 0.67%
- NEUTROPHIL [2]: 7.33%
- NUCLEATED RED BLOOD CELLS [2]: 0.33 /100WBC
- PLATELET COUNT [2]: 1179.33 x10E3/uL
- ALANINE AMINOTRANSFERASE [2]: 48 u/L
- ALBUMIN [2]: 3.73 G/DL
- ALKALINE PHOSPHATASE [2]: 389 u/L
- ASPARTATE AMINOTRANSFERASE [2]: 98 u/L
- BLOOD UREA NITROGEN [2]: 12.67 mg/dL
- CARBON DIOXIDE [2]: 29.33 mmol/L
- CHLORIDE [2]: 101.67 MEQ/L
- CHOLESTEROL [2]: 77.33 mg/dL
- CREATINE PHOSPHOKINASE [2]: 901.67 u/L
- CREATININE [2]: 0.28 mg/dL
- GLUCOSE [2]: 148.67 mg/dL
- LACTATE DEHYDROGENASE [2]: 189.33 u/L
- LIPASE [2]: 11.33 u/L
- PHOSPHORUS [2]: 13.97 mg/dL
- POTASSIUM [2]: 7.3 MEQ/L
- SODIUM [2]: 143.43 MEQ/L
- TOTAL BILIRUBIN [2]: 0.17 mg/dL
- TOTAL PROTEIN [2]: 5.43 G/DL
- URIC ACID [2]: 1.67 mg/dL
- ABSOLUTE BASOPHIL [3]: 0 CELLS/uL
- ABSOLUTE EOSINOPHIL [3]: 114.33 CELLS/uL
- ABSOLUTE LYMPHOCYTE [3]: 9946 CELLS/uL
- ABSOLUTE MONOCYTE [3]: 153 CELLS/uL
- ABSOLUTE SEGMENTED NEUTROPHIL [3]: 1220 CELLS/uL
- BASOPHIL [3]: 0%
- EOSINOPHIL [3]: 1%
- ERYTHROCYTE COUNT [3]: 5.75 x10E6/uL
- HEMATOCRIT [3]: 36.17%
- HEMOGLOBIN [3]: 13.83 G/DL
- LEUKOCYTE COUNT [3]: 11.43 x10E3/uL
- LYMPHOCYTE [3]: 87%
- MEAN CORPUSCULAR HEMOGLOBIN [3]: 24.07 pg
- MEAN CORPUSCULAR HEMOGLOBIN CONCENTRATION [3]: 38.27 G/DL
- MEAN CORPUSCULAR VOLUME [3]: 62.97 fL
- MONOCYTE [3]: 1.33%
- NEUTROPHIL [3]: 10.67%
- NUCLEATED RED BLOOD CELLS [3]: 0 /100WBC
- PLATELET COUNT [3]: 1330.33 x10E3/uL
- ALANINE AMINOTRANSFERASE [3]: 48 u/L
- ALBUMIN [3]: 3.63 G/DL
- ALKALINE PHOSPHATASE [3]: 402.67 u/L
- ASPARTATE AMINOTRANSFERASE [3]: 107.33 u/L
- BLOOD UREA NITROGEN [3]: 14.33 mg/dL
- CARBON DIOXIDE [3]: 23.67 mmol/L
- CHLORIDE [3]: 103.67 MEQ/L
- CHOLESTEROL [3]: 78.67 mg/dL
- CREATINE PHOSPHOKINASE [3]: 707.33 u/L
- CREATININE [3]: 0.14 mg/dL
- GLUCOSE [3]: 142 mg/dL
- LACTATE DEHYDROGENASE [3]: 252.33 u/L
- LIPASE [3]: 10 u/L
- PHOSPHORUS [3]: 11.6 mg/dL
- POTASSIUM [3]: 6.41 MEQ/L
- SODIUM [3]: 144.37 MEQ/L
- TOTAL BILIRUBIN [3]: 0.17 mg/dL
- TOTAL PROTEIN [3]: 5.27 G/DL
- URIC ACID [3]: 1.5 mg/dL
